Results published in ChEMBL document CHEMBL1828585, “Reverse fosmidomycin derivatives against the antimalarial drug target IspC (Dxr)” (J Med Chem, 2011).
Calls of active or inactive are those of the source. The calls are words filed in the database; no cut-off is given here.

Legend:
[1] = Inhibition of Plasmodium falciparum IspC
[2] = Inhibition of Escherichia coli IspC
Plasmodium falciparum = experiment: Antimicrobial activity against chloroquine-resistant Plasmodium falciparum K1 infected in human erythrocytes assessed as inhibition of parasite replication; assay type: functional, organism-based
MRC5 = experiment: Cytotoxicity against human MRC5 cells; assay type: cell-based
Plasmodium berghei [3] = experiment: Antimalarial activity against Plasmodium berghei ANKA infected in Swiss mouse assessed as suppression of infected RBC at 10 mg/kg, ip qd for 5 days coadministered with ritonavir 10 mg/kg, po measured on day 4; assay type: functional
Plasmodium berghei [4] = experiment: Antimalarial activity against Plasmodium berghei ANKA infected in Swiss mouse assessed as survival at 10 mg/kg, ip qd for 5 days coadministered with ritonavir 10 mg/kg, po
Plasmodium berghei [5] = experiment: Antimalarial activity against Plasmodium berghei ANKA infected in Swiss mouse assessed as suppression of infected RBC at 40 mg/kg, ip bid for 5 days coadministered with ritonavir 10 mg/kg, po; assay type: functional
Plasmodium berghei [6] = experiment: Antimalarial activity against Plasmodium berghei ANKA infected in Swiss mouse assessed as survival at 40 mg/kg, ip bid for 5 days coadministered with ritonavir 10 mg/kg, po
[7] = Plasmodium falciparum, K1, read-out: IC50

SMILES | IC50 ([1]; read-out: IC50) | IC50 ([2]; read-out: IC50) | IC50 (Plasmodium falciparum; [7]) | IC50 (MRC5) | Activity (Plasmodium berghei [3]) | Survival (Plasmodium berghei [4]) | Activity (Plasmodium berghei [5]) | Survival (Plasmodium berghei [6]) | IC50 [1] | IC50 [2] | IC50 (Plasmodium falciparum)
O=C(CCC(c1cccc2ccccc12)P(=O)(O)O)NO (centres undefined) | 37 nM | 7400 nM | 2400 nM | > 64000 nM |  |  |  |  |  |  | 
CCN(O)C(=O)CCC(c1ccccc1)P(=O)(O)O (centres undefined) | 15 nM | 15000 nM | 1300 nM | > 64000 nM |  |  |  |  |  |  | 
CN(O)C(=O)CCC(c1cccc2ccccc12)P(=O)(O)O (centres undefined) | 9 nM | 3800 nM | 970 nM | > 62000 nM |  |  |  |  |  |  | 
CCN(CC)CCCC(C)Nc1ccnc2cc(Cl)ccc12 (centres undefined) [CHLOROQUINE] |  |  |  |  | 98% | Active |  |  |  |  | 
O=C(CCC(c1ccc(F)c(F)c1)P(=O)(O)O)NO (centres undefined) | 3 nM | 210 nM | 380 nM | > 64000 nM |  |  | 89% | Active |  |  | 
CN(O)C(=O)CCC(c1ccc(F)c(F)c1)P(=O)(O)O (centres undefined) | 3 nM |  | 290 nM | > 64000 nM |  |  | 78% | inactive |  |  | 
O=CN(O)CCCP(=O)(O)O [FOSMIDOMYCIN] | 140 nM | 220 nM | 3700 nM | > 62000 nM |  |  | 92% | Active |  |  | 
CN(O)C(=O)CCC(c1ccc(Cl)c(Cl)c1)P(=O)(O)O (centres undefined) | 4 nM | 290 nM | 410 nM | > 64000 nM |  |  |  |  |  |  | 
CC(C)N(O)C(=O)CCC(c1ccccc1)P(=O)(O)O (centres undefined) |  |  |  | > 64000 nM |  |  |  |  | Not Active | Not Active | Not Active
